This is an account of results in US20160046616A1, “NRF2 SMALL MOLECULE INHIBITORS FOR CANCER THERAPY” (THE JOHNS HOPKINS UNIVERSITY, priority 2013, published 2016).

Molecules are shown by their SMILES. pIC50: −log10 of the molar value. Like-named read-outs stand apart in the source and are kept apart here.

Assay [1] has as its system A549 NRF2-ARE-Fluc stable cell line. The assay can be described thus: A549 Nrf2 assay: NRF2-ARE firefly luciferase reporter gene assay. The class given is cell-based. Conditions: read-out: Potency of inhibition, A549. An excerpt:
A549, the parental cell line, is a non-small-cell lung cancer (NSCLC) cell line with loss-of-function (LOF) Keap1 activity, thus NRF2 transcription factor constitutively translocates into the nucleus to activate the expression of downstream target genes of NRF2. A firefly luciferase reporter (Fluc) construct driven by a minimal promoter of NRF2-specific anti-oxidant responsive element (ARE) is stably expressed in the A549 cells. Compounds that reduce the translocation of NRF2 into the nucleus or prevent the interaction between NRF2 and ARE will lead to a decrease in luciferase activity.
The final concentration of DMSO was maintained at 0.46%. Control compounds Budesonide and Staurosporine were both added at a concentration of 2 mM and Budesonide also was added as a 1:10 titration, starting at 200 μM, to achieve dose-response. After an 18-24 hour incubation at 37° C., 95% humidity, and 5% CO2, 1 μL of 5× CellTiter-Fluor non-lytic cell viability assay reagent (Promega, Madison, Wis.) was added into the each well of the plates. The plates were then incubated for 30 minutes at room temperature before they were read on a ViewLux plate imager (Perkin Elmer, Waltham, Mass.) using an excitation wavelength of 405 nm and an emission wavelength of 525 nm.
A cell based reporter assay approach was used for the identification of agents that could inhibit Nrf2 mediated gene expression (FIG. 1). A549-ARE-luciferase cells express the luciferase gene driven by a minimal promoter and an enhancer element containing an NRF2 binding site (Antioxidant Response Element, ARE).
(§1) Representative compounds were assayed to assess the potency of inhibition in an A549 NRF2-ARE-Fluc stable cell line (A549 Nrf2 assay), in an H838 NRF2-ARE-Fluc stable cell line (H838 Nrf2 assay), and in an H1437 NRF2-ARE-Fluc stable cell line (H1437 Nrf2 assay) (see Table 3).

Assay [2] concerns H1437 NRF2-ARE-Fluc stable cell line. Kind of assay: H1437 Nrf2 assay: NRF2-ARE firefly luciferase reporter gene assay. The class given is cell-based. Conditions: read-out: Potency of inhibition, H1437.
Excerpt: H1437 is another NSCLC cell line with LOF Keap1 activity and constitutive translocation of NRF2 into the nucleus. A firefly luciferase reporter construct driven by a minimal promoter of NRF2-specific ARE is stably expressed in the H1437 cells. This cell line was used as a confirmation assay to make sure hits identified from primary screening and that passed counterscreen assays worked in different cell types with a constitutively active NRF2 pathway (deficiency in Keap1).
This assay was very similar to the primary assay except that the cell line was changed. […] The final concentration of DMSO was maintained at 0.46%. Control compounds Budesonide and Staurosporine were both added at a concentration of 2 mM and Budesonide was also added as a 1:10 titration, starting at 200 μM, to achieve dose-response. After an 18-24 hour incubation at 37° C., 95% humidity, and 5% CO2, 1 μL of 5× CellTiter-Fluor non-lytic cell viability assay reagent (Promega, Madison Wis.) was added into the each well of the plates. The plates were then incubated for 30 minutes at room temperature before they were read on a ViewLux plate imager (Perkin Elmer, Waltham Mass.) using an excitation wavelength of 405 nm and an emission wavelength of 525 nm.
as §1
A general note: Reporter assays use an easily measured gene product as a stand-in for the process of interest.

Setting [3] is: Homo sapiens, NCI-H1437, H1437 NRF2-ARE-Fluc stable cell line.

With `O=C(Nc1ncc(Cc2ccc(C(F)(F)F)cc2)s1)c1ccn(CCN2CCOCC2)n1` [Compound 231], the pIC50 was 4.60 to 5.30 in assay [1] (Homo sapiens) and over 5.30 in assay [2] (setting [3]).
On to `O=C(Cc1ccccc1)Nc1cccc(-c2ccc3[nH]cnc3c2)n1` [Compound 57, N-(6-(1H-benzo[d]imidazol-5-yl)pyridin-2-yl)-2-phenylacetamide], for which the pIC50 in assay [1] (Homo sapiens) and in assay [2] (setting [3]) was under 4.60 in each case.
In the case of `O=C(Nc1ccc(S(=O)(=O)N2CCOCC2)cc1)c1ccc(CN2CCCc3ccccc32)cc1` [compound 172], the pIC50 in assay [1] (Homo sapiens) and in assay [2] (setting [3]) was over 5.30 each time.
`CN1CCN(S(=O)(=O)c2ccc(NC(=O)c3ccc(CN4CCc5ccccc5C4)cc3)cc2)CC1` [compound 146]: the pIC50 is over 5.30 in assay [1] (Homo sapiens) and under 4.60 in assay [2] (setting [3]).
Regarding `CN(C1CCOCC1)S(=O)(=O)c1ccc(NC(=O)c2ccc(CN3CCc4ccccc4C3)cc2)cc1` [compound 167], the pIC50 in assay [1] (Homo sapiens) is over 5.30; in assay [2] (setting [3]), 4.60 to 5.30.
Taken in the same sequence, the figures for `Cc1ccc(Cc2cnc(NC(=O)c3ccn(-c4ccccc4)n3)s2)cc1` [Compound 221] were 4.60 to 5.30 and 4.60 to 5.30.
The matching figures for `Cc1ccccc1C(=O)N1CCc2cc(-c3nc(NC(=O)C(C)(C)C)sc3C)ccc21` [Compound 209]: 4.60 to 5.30 and over 5.30.
Take `COc1cccc(Cc2cnc(NC(=O)c3ccn(-c4ccccc4)n3)s2)c1` [Compound 219]: the pIC50 in assay [1] (Homo sapiens) is over 5.30; in assay [2] (setting [3]), 4.60 to 5.30.
The matching figures for `Cc1ccc(NC(=O)c2ccc(S(=O)(=O)N(C)c3ccccc3)cc2)cc1S(=O)(=O)N1CCOCC1` [Compound 46]: over 5.30 and 4.60 to 5.30.
The matching figures for `CC1=C(C(=O)N2CCc3cc(-c4nc(NC(=O)Cc5ccc6c(c5)OCO6)sc4C)ccc32)OCCO1` [Compound 162]: over 5.30 and over 5.30.
Taken in the same sequence, the figures for `COc1ccc(-c2cc(C)no2)cc1S(=O)(=O)N1CCN(c2ccc([N+](=O)[O-])cc2)CC1` [Compound 42] were over 5.30 and over 5.30.
In the case of `O=C(Nc1ncc(Cc2ccc(C(F)(F)F)cc2)s1)c1ccco1` [Compound 15], the pIC50 in assay [1] (Homo sapiens) and in assay [2] (setting [3]) was under 4.60 in each case.
Turning to `CC(=O)N1CCc2cc(S(=O)(=O)NCCC3=CCCCC3)ccc21` [Compound 35], the pIC50 in assay [1] (Homo sapiens) was over 5.30; in assay [2] (setting [3]), 4.60 to 5.30.
Turning to `Cc1ccccc1C(=O)N1CCc2cc(-c3nc(NC(=O)CN4CCN(C(=O)C5CC5)CC4)sc3C)ccc21` [Compound 212], the pIC50 in assay [1] (Homo sapiens) and in assay [2] (setting [3]) was over 5.30 throughout.
As for `O=C(Nc1cncc(Cc2ccccc2)c1)c1ccc(-c2cccc([N+](=O)[O-])c2)o1` [Compound 170], the pIC50 in assay [1] (Homo sapiens) and in assay [2] (setting [3]) was 4.60 to 5.30 throughout.
In the case of `O=C(Nc1ncc(Cc2cccc(Cl)c2)s1)c1ccn(-c2ccccc2)n1` [Compound 220], the pIC50 was 4.60 to 5.30 in assay [1] (Homo sapiens) and over 5.30 in assay [2] (setting [3]).
Taken in the same sequence, the figures for `O=C(Nc1ccc(S(=O)(=O)N2CCOCC2)cc1)c1ccc(CN2Cc3ccccc3C2)cc1` [Compound 204] were over 5.30 and over 5.30.
Taken in the same sequence, the figures for `Cc1ccsc1C(=O)N1CCc2cc(-c3nc(NC(=O)Cc4ccc5c(c4)OCO5)sc3C)ccc21` [Compound 182] were over 5.30 and over 5.30.
The matching figures for `Cc1ccccc1C(=O)N1CCc2cc(-c3nc(NS(=O)(=O)Cc4ccccc4)sc3C)ccc21` [Compound 109]: 4.60 to 5.30 and 4.60 to 5.30.
`Cc1sc(NC(=O)Cc2ccc3c(c2)OCO3)nc1-c1ccc2c(c1)CCN2C(=O)c1ccnn1C` [Compound 185]: the pIC50 in assay [1] (Homo sapiens) and in assay [2] (setting [3]) was over 5.30 in each case.
For `O=C(Nc1ccccc1)c1ccc(CN2CCc3ccccc3C2)cc1` [compound 143], the results for the pIC50 in assay [1] (Homo sapiens) and in assay [2] (setting [3]) were 4.60 to 5.30 and under 4.60, respectively.
With `Cc1ccccc1S(=O)(=O)N1CCc2cc(-c3nc(NC(=O)Cc4ccccc4F)sc3C)ccc21` [Compound 122], the pIC50 in assay [1] (Homo sapiens) and in assay [2] (setting [3]) was over 5.30 throughout.
On to `Cc1ccc(CC(=O)Nc2nc(-c3ccc4c(c3)CCN4S(=O)(=O)c3ccccc3C)c(C)s2)cc1` [Compound 133], for which the pIC50 in assay [1] (Homo sapiens) was over 5.30; in assay [2] (setting [3]), under 4.60.
The matching figures for `COc1ccc(CC(=O)Nc2nc(-c3ccc4c(c3)CCN4C(=O)c3ccc(C4(C(F)(F)F)N=N4)cc3)c(C)s2)cc1` [Compound 233]: 4.60 to 5.30 and 4.60 to 5.30.
Regarding `CC(=O)N1CCN(Cc2ccc(C(=O)Nc3ccc(S(=O)(=O)N4CCOCC4)cc3)cc2)CC1` [Compound 201], the pIC50 in assay [1] (Homo sapiens) and in assay [2] (setting [3]) was 4.60 to 5.30 throughout.
For the molecule `Cc1sc(NC(=O)Cc2ccc3c(c2)OCO3)nc1-c1ccc2c(c1)CCN2C(=O)c1cnoc1C(C)C` [Compound 158], the results for the pIC50 in assay [1] (Homo sapiens) and in assay [2] (setting [3]) were over 5.30 and under 4.60, respectively.
As to `O=C(Nc1ccc(S(=O)(=O)N2CCOCC2)cc1)c1ccc(N2CCc3ccccc3C2)cc1` [compound 152], the pIC50 in assay [1] (Homo sapiens) and in assay [2] (setting [3]) was over 5.30 each time.
`Cc1sc(NC(=O)Cc2ccc3c(c2)OCO3)nc1-c1ccc2c(c1)CCN2C(=O)c1ccccc1` [Compound 14]: the pIC50 in assay [1] was over 5.30; in assay [2] (H1437 NRF2-ARE-Fluc stable cell line), 4.60 to 5.30.
For `O=C(Nc1cc(Cc2ccccc2)ccn1)c1ccc(-c2cccc([N+](=O)[O-])c2)o1` [Compound 150], the pIC50 in assay [1] (Homo sapiens) is over 5.30; in assay [2] (setting [3]) it was under 4.60.
The matching figures for `Cc1ccccc1C(=O)N1CCc2cc(-n3cc(NC(=O)Cc4ccccc4)cn3)ccc21` [Compound 100]: 4.60 to 5.30 and 4.60 to 5.30.
Taken in the same sequence, the figures for `O=C(Nc1ccc([S+](=O)([O-])O)cc1)c1ccc(CN2CCc3ccccc3C2)cc1` [compound 156] were under 4.60 and under 4.60.
In the case of `CC(=O)N1CCN(CC(=O)Nc2nc(-c3ccc4c(c3)CCN4C(=O)c3ccccc3C)c(C)s2)CC1` [Compound 227], the pIC50 in assay [1] (Homo sapiens) and in assay [2] (setting [3]) was 4.60 to 5.30 throughout.
On to `CC(=O)N1CCN(S(=O)(=O)c2ccc(NC(=O)c3ccc(CN4CCc5ccccc5C4)cc3)cc2)CC1` [Compound 198], for which the pIC50 in assay [1] (Homo sapiens) and in assay [2] (setting [3]) was over 5.30 throughout.
Take `Cc1csc2ncnc(N3CCN(S(=O)(=O)c4cccc(C(F)(F)F)c4)CC3)c12` [Compound 43]: the pIC50 in assay [1] (Homo sapiens) is 4.60 to 5.30; in assay [2] (setting [3]), over 5.30.
For `Cc1ccc(CC(=O)Nc2nc(-c3ccc4c(c3)CCN4C(=O)c3ccccc3C)c(C)s2)cc1C` [Compound 10], the pIC50 in assay [1] (Homo sapiens) was 4.60 to 5.30; in assay [2] (setting [3]), under 4.60.
As for `O=C(Nc1ncc(Cc2ccc(F)cc2)s1)c1ccn(-c2ccccc2)n1` [Compound 222], the pIC50 in assay [1] (Homo sapiens) and in assay [2] (setting [3]) was over 5.30 in each case.
With `O=C(Cc1ccccc1)Nc1cccc(-c2ccc(N3CCCCC3)cc2)n1` [Compound 63], the pIC50 in assay [1] (Homo sapiens) and in assay [2] (setting [3]) was under 4.60 throughout.
Consider `CN(C1COC1)S(=O)(=O)c1ccc(NC(=O)c2ccc(CN3CCc4ccccc4C3)cc2)cc1` [compound 173], for which the pIC50 in assay [1] (Homo sapiens) and in assay [2] (setting [3]) was over 5.30 in each case.
As for `COc1ccc(CC(=O)Nc2nc(-c3ccc4c(c3)CCN4C(=O)c3ccnn3C)c(C)s2)cc1` [Compound 197], the pIC50 in assay [1] (Homo sapiens) and in assay [2] (setting [3]) was over 5.30 throughout.
For `Cc1ncoc1C(=O)N1CCc2cc(-c3nc(NC(=O)Cc4ccc5c(c4)OCO5)sc3C)ccc21` [Compound 181], the pIC50 in assay [1] (Homo sapiens) was over 5.30; in assay [2] (setting [3]), under 4.60.
Taken in the same sequence, the figures for `O=C(Nc1ncc(Cc2ccc(C(F)(F)F)cc2)s1)c1ccn(-c2cccc([N+](=O)[O-])c2)n1` [Compound 117] were over 5.30 and under 4.60.
Regarding `Cc1ccccc1Cc1cnc(NC(=O)c2ccn(-c3ccccc3)n2)s1` [Compound 214], the pIC50 in assay [1] (Homo sapiens) and in assay [2] (setting [3]) was 4.60 to 5.30 in each case.
In the case of `Cc1ccccc1CCNC(=O)c1ccc(Cl)c(S(=O)(=O)N2CC(C)OC(C)C2)c1` (centres unmarked) [Compound 44], the pIC50 in assay [1] (Homo sapiens) and in assay [2] (setting [3]) was 4.60 to 5.30 throughout.
